Each structure is given as a SMILES string. Bounds are passed on as bounds.

What is called melting point is the temperature, or range, at which the solid turns liquid.

System in one data set: not given
Assay: not given
Settings: not given
`O=C(O)C(=O)Nc1sc2c(c1C(=O)O)CCOC2CN1C(=O)S/C(=C\c2c[nH]cn2)C1=O` (centres unmarked) [Example 41, 7-(5-(1H-imidazol-4(5)-ylmethylene)-2,4-dioxo-thiazolidin-3-ylmethyl)-2-(oxalyl-amino)-4,7-dihydro-5H-thieno[2,3-c]pyran-3-carboxylic acid] came in with a melting point of over 250 °C.

The target in a further data set is T1, truncated form of PTP1 B (corresponding to the first 321 amino acids) (Homo sapiens, UniProt P18031).
T1 construct: truncated form of PTP1 B (corresponding to the first 321 amino acids); made in house; host or cells: E. coli
T1 sequence (P18031 1-321): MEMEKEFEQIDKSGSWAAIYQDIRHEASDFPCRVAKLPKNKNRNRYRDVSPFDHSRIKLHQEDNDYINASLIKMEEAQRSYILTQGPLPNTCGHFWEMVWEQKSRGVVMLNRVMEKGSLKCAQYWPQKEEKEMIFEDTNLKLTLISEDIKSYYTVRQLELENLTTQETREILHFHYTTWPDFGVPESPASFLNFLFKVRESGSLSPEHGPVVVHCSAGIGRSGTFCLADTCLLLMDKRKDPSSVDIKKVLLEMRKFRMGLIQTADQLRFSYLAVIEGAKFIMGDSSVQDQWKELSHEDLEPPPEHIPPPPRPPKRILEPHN
Nature of the data set: Inhibition of PTP1B (p-nitrophenyl phosphate substrate, enzyme kinetic analysis). Type of data set: biochemical. The note with it: truncated PTP1B expressed in E. coli; substrate p-nitrophenyl phosphate 0.16 to 10 mM; 50 mM HEPES pH 7.0; 60 minutes; read-out: PTP1B K1 values. As to the method: The compounds are evaluated for biological activity with a truncated form of PTP1 B (corresponding to the first 321 amino acids), which was expressed in E. coli and purified to apparent homogeneity using published procedures well-known to those skilled in the art. The enzyme reactions are carried out using standard conditions essentially as described by Burke et al. (Biochemistry 35; 15989–15996 (1996)). The assay conditions are as follows. Appropriate concentrations of the compounds of the invention are added to the reaction mixtures containing different concentrations of the substrate, p-nitrophenyl phosphate (range: 0.16 to 10 mM—final assay concentration). The buffer used was 50 mM HEPES pH 7.0, 100 mM sodium chloride, 0.1% (w/v) bovine serum albumin, 5 mM glutathione, and 1 mM EDTA.). The reaction was started by addition of the enzyme and carried out in microtiter plates at […] for 60 minutes. The reactions are stopped by addition of NaOH. The enzyme activity was determined by measurement of the absorbance at 405 nm with appropriate corrections for absorbance at 405 nm of the compounds and p-nitrophenyl phosphate. The data are analyzed using nonlinear regression fit to classical Michaelis Menten enzyme kinetic models. Inhibition is expressed as Ki values in μM.
In the case of `O=C(O)C(=O)Nc1sc2c(c1C(=O)O)CCOC2COC1=NS(=O)(=O)C(c2ccccc2)=C1` (centres unmarked) [Example 50, 7-(1,1-Dioxo-5-phenyl-1H-isothiazol-3-yloxymethyl)-2-(oxalyl-amino)-4,7-dihydro-5H-thieno[2,3-c]pyran-3-carboxylic acid], the Ki is 3000 nM. With `CC(=O)Nc1ccc(/C=C2\SC(=O)N(CC3OCCc4c3sc(NC(=O)C(=O)O)c4C(=O)O)C2=O)cc1` (centres unmarked) [Example 39, 7-(5-(4-Acetylamino-benzylidene)-2,4-dioxo-thiazolidin-3-ylmethyl)-2-(oxalyl-amino)-4,7-dihydro-5H-thieno[2,3-c]pyran-3-carboxylic acid], the Ki was determined as 7500 nM. The same measure, in the same setting: under `O=C(O)C(=O)Nc1sc2c(c1C(=O)O)CC(CN1C(=O)c3cccc(O)c3C1=O)OC2` (centres unmarked) [Example 4, 5-(4-Hydroxy-1,3-dioxo-1,3-dihydro-isoindol-2-ylmethyl)-2-(oxalyl-amino)-4,7-dihydro-5-H-thieno[2,3-c]pyran-3-carboxylic acid] stands 1500 nM.

Take `O=C(O)C(=O)Nc1sc2c(c1C(=O)O)CCOC2COC1=NS(=O)(=O)c2ccccc21` (centres unmarked) [Example 47]: the Ki came out at 800 nM. On the same count and under the same terms, under `O=C(O)C(=O)Nc1sc2c(c1C(=O)O)CCOC2CNC(=O)c1ccc2c(c1)OCO2` (centres unmarked) [Example 28, 7-(((Benzo[1,3]dioxole-5-carbonyl)amino)methyl)-2-(oxalyl-amino)-4,7-dihydro-5H-thieno[2,3-c]pyran-3-carboxylic acid] stands 8200 nM; under `O=C(O)C(=O)Nc1sc2c(c1C(=O)O)CCOC2CN1C(=O)c2cccc(O)c2C1=O` (centres unmarked) [Example 25, 7-(4-Hydroxy-1,3-dioxo-1,3-dihydro-isoindol-2-ylmethyl)-2-(oxalyl-amino)-4,7-dihydro-5H-thieno[2,3-c]pyran-3-carboxylic acid], 7000 nM. With `O=C(O)C(=O)Nc1sc2c(c1C(=O)O)CCOC2CN1C(=O)c2ccccc2S1(=O)=O` (centres unmarked) [Example 46, 2-(Oxalyl-amino)-7-(1,1,3-trioxo-1,3-dihydro-1H-benzo[d]isothiazol-2-ylmethyl)-4,7-dihydro-5H-thieno[2,3-c]pyran-3-carboxylic acid], the Ki was determined as 2300 nM.

For `O=C(O)C(=O)Nc1sc2c(c1C(=O)O)CCOC2CN1C(=O)C=C(c2ccccc2)S1(=O)=O` (centres unmarked) [Example 49, 2-(Oxalyl-amino)-7-(1,1,3-trioxo-5-phenyl-1,3-dihydro-isothiazol-2-ylmethyl)-4,7-dihydro-5H-thieno[2,3-c]pyran-3-carboxylic acid], the Ki was determined as 1400 nM. The same measure, in the same setting: under `COc1ccc2c(c1)C(=O)N(CC1OCCc3c1sc(NC(=O)C(=O)O)c3C(=O)O)C2=O` (centres unmarked) [Example 26, 5-(5-Methoxy-1,3-dioxo-1,3-dihydro-isoindol-2-ylmethyl)-2-(oxalyl-amino)-4,7-dihydro-5H-thieno[2,3-c]pyran-3-carboxylic acid] stands 1200 nM; under `O=C(O)C(=O)Nc1sc2c(c1C(=O)O)CCOC2CN1C(=O)S/C(=C\c2c[nH]cn2)C1=O` (centres unmarked) [Example 41, 7-(5-(1H-imidazol-4(5)-ylmethylene)-2,4-dioxo-thiazolidin-3-ylmethyl)-2-(oxalyl-amino)-4,7-dihydro-5H-thieno[2,3-c]pyran-3-carboxylic acid], 1500 nM; under `O=C(O)C(=O)Nc1sc2c(c1C(=O)O)CCOC2CN1C(=O)c2cc3c(cc2C1=O)OCO3` (centres unmarked) [Example 27], 3600 nM.

For the molecule `O=C(O)C(=O)Nc1sc2c(c1C(=O)O)CCOC2Cn1c(=O)c2ccccc2[s+]1[O-]` (centres unmarked) [Example 55, 7-(1,3-Dioxo-1,3-dihydro-benzo[d]isothiazol-2-ylmethyl)-2-(oxalyl-amino)-4,7-dihydro-5H-thieno[2,3-c]pyran-3-carboxylic acid], the Ki came out at 1300 nM.

Turning to `O=C(O)C(=O)Nc1sc2c(c1C(=O)O)CCOC2CN1C(=O)CSC1=O` (centres unmarked) [Example 23, 7-(2,4-Dioxo-Thiazolidin-3-ylmethyl)-2-(oxalyl-amino)-4,7-dihydro-5H-thieno[2,3-c]pyran-3-carboxylic acid], the Ki came out at 9700 nM.

For the origin of these results see US7019026B1, “Modulators of Protein Tyrosine Phosphatases (PTPases)” (Novo Nordisk A/S, priority 1999, dated 2006).
